# Measurements taken from ChEMBL document CHEMBL4145553, “Design, synthesis, and biological evaluation of novel amide and hydrazide based thioether analogs targeting Histone deacteylase (HDAC) enzymes” (Eur J Med Chem, 2018).
# Tests used:
# Type in all cases: functional
# [1] = system: ACHN; assay: Growth inhibition of human ACHN cells incubated for 48 hrs by sulforhodamine B assay
# [2] = system: SNB-19; assay: Growth inhibition of human SNB19 cells assessed as cell growth at 10^-4 M incubated for 48 hrs by sulforhodamine B assay relative to control; conditions: SNB-19, 48 h, read-out: Activity
# [3] = system: RPMI-8226; assay: Growth inhibition of human RPMI8226 cells assessed as cell growth at 10^-6 M incubated for 48 hrs by sulforhodamine B assay relative to control; conditions: RPMI-8226, 48 h, read-out: Activity
# [4] = system: EKVX; assay: Growth inhibition of human EKVX cells assessed as cell growth at 10^-4 M incubated for 48 hrs by sulforhodamine B assay relative to control; conditions: read-out: Activity
# [5] = system: MDA-MB-231; assay: Growth inhibition of human MDA-MB-231 cells assessed as cell growth at 10^-6 M incubated for 48 hrs by sulforhodamine B assay relative to control; conditions: MDA-MB-231, 48 h, read-out: Activity
# [6] = system: KM12; assay: Growth inhibition of human KM12 cells assessed as cell growth at 10^-4 M incubated for 48 hrs by sulforhodamine B assay relative to control; conditions: KM12, 48 h, read-out: Activity
# [7] = system: T47D; assay: Growth inhibition of human T47D cells incubated for 48 hrs by sulforhodamine B assay
# [8] = system: M14; assay: Growth inhibition of human M14 cells incubated for 48 hrs by sulforhodamine B assay; conditions: M14, 48 h
# [9] = system: K562; assay: Growth inhibition of human K562 cells incubated for 48 hrs by sulforhodamine B assay; conditions: K562, 48 h
# [10] = system: A498; assay: Growth inhibition of human A498 cells assessed as cell growth at 10^-5 M incubated for 48 hrs by sulforhodamine B assay relative to control; conditions: A498, 48 h, read-out: Activity
# [11] = system: CAKI-1; assay: Growth inhibition of human Caki1 cells assessed as cell growth at 10^-8 M incubated for 48 hrs by sulforhodamine B assay relative to control; conditions: CAKI-1, 48 h, read-out: Activity
# [12] = system: SK-MEL-5; assay: Growth inhibition of human SK-MEL-5 cells assessed as cell growth at 10^-4 M incubated for 48 hrs by sulforhodamine B assay relative to control; conditions: SK-MEL-5, 48 h, read-out: Activity
# [13] = system: MOLT-4; assay: Growth inhibition of human MOLT4 cells assessed as cell growth at 10^-8 M incubated for 48 hrs by sulforhodamine B assay relative to control; conditions: MOLT-4, 48 h, read-out: Activity
# [14] = system: RPMI-8226; assay: Growth inhibition of human RPMI8226 cells incubated for 48 hrs by sulforhodamine B assay; conditions: RPMI-8226, 48 h
# [15] = system: HL-60(TB); assay: Growth inhibition of human HL-60(TB) cells assessed as cell growth at 10^-7 M incubated for 48 hrs by sulforhodamine B assay relative to control; conditions: HL-60, 48 h, read-out: Activity
# [16] = system: U-251; assay: Growth inhibition of human U251 cells assessed as cell growth at 10^-5 M incubated for 48 hrs by sulforhodamine B assay relative to control; conditions: U-251, 48 h, read-out: Activity
# [17] = system: HCC 2998; assay: Growth inhibition of human HCC2998 cells assessed as cell growth at 10^-7 M incubated for 48 hrs by sulforhodamine B assay relative to control; conditions: HCC 2998, 48 h, read-out: Activity
# [18] = system: MDA-MB-435; assay: Cell cycle arrest in human MDA-MB-435 cells assessed as accumulation at G1-phase by propidium iodide staining based flow cytometry (reference value: 69.15%)
# [19] = system: UACC-257; assay: Growth inhibition of human UACC257 cells assessed as cell growth at 10^-7 M incubated for 48 hrs by sulforhodamine B assay relative to control; conditions: UACC-257, 48 h, read-out: Activity
# [20] = system: HL-60; assay: Cell cycle arrest in human HL60 cells assessed as accumulation at S-phase by propidium iodide staining based flow cytometry (reference value: 24.9%)
# [21] = system: LOX IMVI; assay: Growth inhibition of human LOXIMVI cells incubated for 48 hrs by sulforhodamine B assay
# [22] = system: U-251; assay: Growth inhibition of human U251 cells assessed as cell growth at 10^-6 M incubated for 48 hrs by sulforhodamine B assay relative to control; conditions: U-251, 48 h, read-out: Activity
# [23] = system: SW-620; assay: Growth inhibition of human SW620 cells incubated for 48 hrs by sulforhodamine B assay; conditions: SW-620, 48 h
# [24] = system: SK-OV-3; assay: Growth inhibition of human SKOV3 cells incubated for 48 hrs by sulforhodamine B assay; conditions: SK-OV-3, 48 h
# [25] = system: MDA-MB-435; assay: Antiproliferative activity against human MDA-MB-435 cells after 24 hrs by MTT assay
# [26] = system: SF-268; assay: Growth inhibition of human SF268 cells assessed as cell growth at 10^-4 M incubated for 48 hrs by sulforhodamine B assay relative to control; conditions: SF-268, 48 h, read-out: Activity
# [27] = system: DU-145; assay: Growth inhibition of human DU145 cells assessed as cell growth at 10^-8 M incubated for 48 hrs by sulforhodamine B assay relative to control; conditions: DU-145, 48 h, read-out: Activity
# [28] = system: ACHN; assay: Growth inhibition of human ACHN cells assessed as cell growth at 10^-4 M incubated for 48 hrs by sulforhodamine B assay relative to control; conditions: read-out: Activity
# [29] = system: A549; assay: Growth inhibition of human A549/ATCC cells assessed as cell growth at 10^-5 M incubated for 48 hrs by sulforhodamine B assay relative to control; conditions: A549, 48 h, read-out: Activity
# [30] = read-out: LC50 (the source's name)
# [31] = read-out: pLC50 (the source's name) (converted)
smiles,measurement,setting,value
CCS/C(Nc1ccccc1)=C(\C#N)C(=O)Nc1ccc(OC)cc1,GI50,[1]; read-out: GI50,5.04 µM
same,CC50,[1]; [30],> 100 µM
same,TGI,[1]; read-out: TGI,> 100 µM
same,GI50,[1]; read-out: pGI50 (converted),5.01 µM
same,CC50,[1]; [31],> 100 µM
same,TGI,[1]; read-out: pTGI,> 100 µM
same,growth at 100 µM,[2],14%
same,growth at 1 µM,[3],79%
same,growth at 100 µM,[4],16%
same,growth at 1 µM,[5],93%
same,growth at 100 µM,[6],7%
same,GI50,[7]; read-out: GI50,4.08 µM
same,CC50,[7]; [30],> 100 µM
same,TGI,[7]; read-out: TGI,> 100 µM
same,GI50,[7]; read-out: pGI50 (converted),4.07 µM
same,CC50,[7]; [31],> 100 µM
same,TGI,[7]; read-out: pTGI,> 100 µM
same,GI50,[8]; read-out: GI50,2.27 µM
same,CC50,[8]; [30],> 100 µM
same,TGI,[8]; read-out: TGI,87.4 µM
same,GI50,[8]; read-out: pGI50 (converted),2.29 µM
same,CC50,[8]; [31],> 100 µM
same,TGI,[8]; read-out: pTGI (converted),87.1 µM
same,GI50,[9]; read-out: GI50,0.436 µM
same,CC50,[9]; [30],> 100 µM
same,TGI,[9]; read-out: TGI,> 100 µM
same,GI50,[9]; read-out: pGI50 (converted),0.437 µM
same,CC50,[9]; [31],> 100 µM
same,TGI,[9]; read-out: pTGI,> 100 µM
same,growth at 10 µM,[10],9%
same,growth at 0.01 µM,[11],90%
same,growth at 100 µM,[12],-58%
same,growth at 0.01 µM,[13],97%
same,GI50,[14]; read-out: GI50,2.52 µM
same,CC50,[14]; [30],> 100 µM
same,TGI,[14]; read-out: TGI,> 100 µM
same,GI50,[14]; read-out: pGI50 (converted),2.51 µM
same,CC50,[14]; [31],> 100 µM
same,TGI,[14]; read-out: pTGI,> 100 µM
same,growth at 0.1 µM,[15],89%
same,growth at 10 µM,[16],26%
same,growth at 0.1 µM,[17],92%
same,Activity,[18],51.68%
same,growth at 0.1 µM,[19],95%
same,Activity,[20],15.51%
same,GI50,[21]; read-out: GI50,6.16 µM
same,CC50,[21]; [30],> 100 µM
same,TGI,[21]; read-out: TGI,> 100 µM
same,GI50,[21]; read-out: pGI50 (converted),6.17 µM
same,CC50,[21]; [31],> 100 µM
same,TGI,[21]; read-out: pTGI,> 100 µM
same,growth at 1 µM,[22],94%
same,GI50,[23]; read-out: GI50,2.55 µM
same,CC50,[23]; [30],> 100 µM
same,TGI,[23]; read-out: TGI,> 100 µM
same,GI50,[23]; read-out: pGI50 (converted),2.57 µM
same,CC50,[23]; [31],> 100 µM
same,TGI,[23]; read-out: pTGI,> 100 µM
same,GI50,[24]; read-out: GI50,3.28 µM
same,CC50,[24]; [30],> 100 µM
same,TGI,[24]; read-out: TGI,50.2 µM
same,GI50,[24]; read-out: pGI50 (converted),3.31 µM
same,CC50,[24]; [31],> 100 µM
same,TGI,[24]; read-out: pTGI (converted),50.1 µM
same,Activity,[25],Dose-dependent effect
same,GI50,"[25]; Homo sapiens, MDA-MB-435, 24 h",0.37 µM
same,growth at 100 µM,[26],11%
same,growth at 0.01 µM,[27],101%
same,growth at 100 µM,[28],17%
same,growth at 10 µM,[29],35%
